According to US20230365582A1, “NOVEL COMPOUNDS HAVING INHIBITORY ACTIVITY ON PROSTAGLANDIN E2 RECEPTOR AND USES THEREOF” (KANAPH THERAPEUTICS INC., priority 2020, published 2023):

Columns and labels:
hEP2 = molecular target: T1, hEP2 (Homo sapiens, UniProt P43116); assay: hEP2 cAMP assay; format: cell-based; details: HEK293 cells overexpressing hEP2; PGE2 agonist 400 pM; graded per Table 21; read-out: IC50 (nM) EP2 cAMP
T1 construct: expressed in transfected cells; host or cells: HEK293
How it was run: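 HEK293 cells overexpressing hEP2, serum-starved 4 h, then 1,000 cells/well treated with compound (10 μM–0.001 nM) plus 400 pM PGE2 (about EC50-80) in HBSS buffer with 0.5 mM IBMX for 12 min at room temperature. cAMP measured by TR-FRET (665/615 nm) as % of DMSO control; IC50 from 4-parameter fit, median of repeats.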

hEP4 = molecular target: T2, hEP4 (Homo sapiens, UniProt P35408); assay: hEP4 cAMP assay; format: cell-based; details: HEK293 cells overexpressing hEP4; PGE2 agonist 20 nM; graded per Table 21; read-out: IC50 (nM) EP4 cAMP
T2 construct: expressed in transfected cells; host or cells: HEK293
T2 sequence (P35408 whole entry): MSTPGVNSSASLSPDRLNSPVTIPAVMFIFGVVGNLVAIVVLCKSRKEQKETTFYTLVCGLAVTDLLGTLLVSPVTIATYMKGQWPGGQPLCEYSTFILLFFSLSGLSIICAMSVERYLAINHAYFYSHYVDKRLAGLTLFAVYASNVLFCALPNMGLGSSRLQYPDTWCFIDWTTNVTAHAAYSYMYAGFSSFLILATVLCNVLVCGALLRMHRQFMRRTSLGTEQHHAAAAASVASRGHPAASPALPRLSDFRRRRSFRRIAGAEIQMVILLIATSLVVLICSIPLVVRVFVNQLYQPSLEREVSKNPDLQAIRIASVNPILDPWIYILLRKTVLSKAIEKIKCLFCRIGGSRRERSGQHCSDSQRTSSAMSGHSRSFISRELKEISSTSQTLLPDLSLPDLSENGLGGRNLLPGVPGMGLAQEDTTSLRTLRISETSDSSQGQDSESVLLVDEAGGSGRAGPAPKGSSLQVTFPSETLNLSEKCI
How it was run: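 HEK293 cells overexpressing hEP4, starved 4 h, were treated with compound (10 μM-0.001 nM) plus 20 nM PGE2 (EC50-80) in HBSS buffer with 0.5 mM IBMX for 18.5 min at room temperature. cAMP was read by TR-FRET (665/615 nm) as % of DMSO control; IC50 from 4-parameter fit, median of multiple experiments.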

T1 sequence (P43116 whole entry): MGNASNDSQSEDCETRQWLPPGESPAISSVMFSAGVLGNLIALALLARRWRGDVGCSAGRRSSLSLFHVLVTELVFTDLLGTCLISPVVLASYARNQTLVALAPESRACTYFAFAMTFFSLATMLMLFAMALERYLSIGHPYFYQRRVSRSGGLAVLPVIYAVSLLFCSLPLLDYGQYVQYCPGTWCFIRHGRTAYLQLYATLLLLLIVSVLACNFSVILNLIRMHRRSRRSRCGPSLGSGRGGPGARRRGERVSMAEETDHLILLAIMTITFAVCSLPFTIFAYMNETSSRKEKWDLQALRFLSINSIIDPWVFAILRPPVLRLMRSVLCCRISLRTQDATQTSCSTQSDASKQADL

| Structure (SMILES) | IC50 (hEP2) [nM] | IC50 (hEP4) [nM] |
| --- | --- | --- |
| Cc1sc(C)c(C(=O)NC2CC3(C2)CC(C(=O)O)C3)c1Cc1ccc(-c2cc(F)cc(CO)c2)cc1 (stereo not drawn) [Example 60, 6-(4-((3′-fluoro-5′-(hydroxymethyl)-[1,1′-biphenyl]-4-yl)methyl)-2,5-dimethylthiophene-3-carboxamido)spiro[3.3]heptane-2-carboxylic acid] | 5000 to 10000 | < 500 |
| COc1cc(-c2ccc(Cc3c(C)sc(C)c3C(=O)NC3CC4(C3)CC(C(=O)O)C4)cc2)cc(C2(O)COC2)c1 (stereo not drawn) [Example 61, 6-(4-((3′-(3-hydroxyoxetane-3-yl)-5′-methoxy-[1,1′-biphenyl]-4-yl)methyl)-2,5-dimethylthiophene-3-carboxamido)spiro[3.3]heptane-2-carboxylic acid] | > 10000 | 500 to 5000 |
| Cc1sc(C)c(C(=O)NC2CC3(C2)CC(C(=O)O)C3)c1Cc1ccc(-c2cc(F)cc(CN)c2)cc1 (stereo not drawn) [Example 64, 6-(4-((3′-(aminomethyl)-5′-fluoro-[1,1′-biphenyl]-4-yl)methyl)-2,5-dimethylthiophene-3-carboxamido)spiro[3.3]heptane-2-carboxylic acid] | > 10000 | 500 to 5000 |
| Cc1sc(C)c(C(=O)NC2CC3(C2)CC(C(=O)O)C3)c1Cc1ccc(-c2cc(F)cc(C3CNC3)c2)cc1 (stereo not drawn) [Example 65, 6-(4-((3′-(azetidin-3-yl)-5′-fluoro-[1,1′-biphenyl]-4-yl)methyl)-2,5-dimethylthiophene-3-carboxamido)spiro[3.3]heptane-2-carboxylic acid] | > 10000 | 500 to 5000 |
| COc1cc(CN)cc(-c2ccc(Cc3c(C)sc(C)c3C(=O)NC3CC4(C3)CC(C(=O)O)C4)cc2)c1 (stereo not drawn) [Example 66, 6-(4-((3′-(aminomethyl)-5′-methoxy-[1,1′-biphenyl]-4-yl)methyl)-2,5-dimethylthiophene-3-carboxamido)spiro[3.3]heptane-2-carboxylic acid] | > 10000 | 500 to 5000 |
| Cc1sc(C)c(C(=O)NC2CC3(C2)CC(C(=O)O)C3)c1Cc1ccc(C2CCCCC2)cc1 (stereo not drawn) [Example 67, 6-(4-(4-cyclohexylbenzyl)-2,5-dimethylthiophene-3-carboxamido)spiro[3.3]heptane-2-carboxylic acid] | > 10000 | 5000 to 10000 |
| Cc1sc(C)c(C(=O)NC2CC3(C2)CC(C(=O)O)C3)c1Cc1ccc(C2CCNCC2)cc1 (stereo not drawn) [Example 68, 6-(2,5-dimethyl-4-(4-(piperidin-4-yl)benzyl)thiophene-3-carboxamido)spiro[3.3]heptane-2-carboxylic acid] | > 10000 | > 10000 |
| Cc1sc(C)c(C(=O)NC2CC3(C2)CC(C(=O)O)C3)c1Cc1ccc(-c2cc(F)cc(C#N)c2)cc1 (stereo not drawn) [Example 70, 6-(4-((3′-cyano-5′-fluoro-[1,1′-biphenyl]-4-yl)methyl)-2,5-dimethylthiophene-3-carboxamido)spiro[3.3]heptane-2-carboxylic acid] | 5000 to 10000 | < 500 |
| Cc1sc(C)c(C(=O)NC2CC3(C2)CC(C(=O)O)C3)c1Cc1ccc(-c2ccnc(O)c2)cc1 (stereo not drawn) [Example 72, 6-(4-(4-(2-hydroxypyridin-4-yl)benzyl)-2,5-dimethylthiophene-3-carboxamido)spiro[3.3]heptane-2-carboxylic acid] | > 10000 | > 10000 |
| Cc1sc(C)c(C(=O)N(C)C2CC3(CC(C(=O)O)C3)C2)c1Cc1ccc(-c2ccccc2)cc1 (stereo not drawn) [Example 73, 6-(4-([1,1′-biphenyl]-4-ylmethyl)-N,2,5-trimethylthiophene-3-carboxamido)spiro[3.3]heptane-2-carboxylic acid] | > 10000 | > 10000 |
| Cc1sc(C)c(C(=O)NC2CC3(C2)CC(C(=O)O)C3)c1Oc1ccc(-c2ccccc2)cc1 (stereo not drawn) [Example 74, 6-(4-([1,1′-biphenyl]-4-yloxy)-2,5-dimethylthiophene-3-carboxamido)spiro[3.3]heptane-2-carboxylic acid] | > 10000 | > 10000 |
| Cc1sc(C)c(C(=O)NC2CC3(C2)CC(C(=O)O)C3)c1Nc1ccc(-c2ccccc2)cc1 (stereo not drawn) [Example 75, 6-(4-([1,1′-biphenyl]-4-ylamino)-2,5-dimethylthiophene-3-carboxamido)spiro[3.3]heptane-2-carboxylic acid] | > 10000 | > 10000 |
| Cc1sc(C)c(N(C)c2ccc(-c3ccccc3)cc2)c1C(=O)NC1CC2(C1)CC(C(=O)O)C2 (stereo not drawn) [Example 76, 6-(4-([1,1′-biphenyl]-4-yl(methyl)amino)-2,5-dimethylthiophene-3-carboxamido)spiro[3.3]heptane-2-carboxylic acid] | > 10000 | 500 to 5000 |
| Cc1sc(C)c(C(=O)NC2CC3(C2)CC(C(=O)O)C3)c1CN1CCN(c2ccccc2)CC1 (stereo not drawn) [Example 77, 6-(2,5-dimethyl-4-((4-phenylpiperazin-1-yl)methyl)thiophene-3-carboxamido)spiro[3.3]heptane-2-carboxylic acid] | > 10000 | > 10000 |
| Cc1sc(C)c(C(=O)NC2CC3(C2)CC(C(=O)O)C3)c1Cn1cc(-c2ccccc2)cn1 (stereo not drawn) [Example 78, 6-(2,5-dimethyl-4-((4-phenyl-1H-pyrazol-1-yl)methyl)thiophene-3-carboxamido)spiro[3.3]heptane-2-carboxylic acid] | > 10000 | 5000 to 10000 |
| O=C(N[C@H]1C[C@@H](C(=O)O)C1)c1csc2ccn(Cc3ccc(-c4ccccc4)cc3)c12 [Example 84, (1S,3S)-3-(4-([1,1′-biphenyl]-4-ylmethyl)-4H-thieno[3,2-b]pyrrole-3-carboxamido)cyclobutane-1-carboxylic acid] | > 10000 | > 10000 |

Continued, values first:

| IC50 (hEP2) [nM] | IC50 (hEP4) [nM] | Structure (SMILES) |
| --- | --- | --- |
| 500 to 5000 | < 500 | COc1cc(-c2ccc(Cc3c(C)sc(C)c3C(=O)NC3CC4(C3)CC(C(=O)O)C4)cc2)cc(N2CCC2=O)c1 (stereo not drawn) [Example 62, 6-(4-((3′-methoxy-5′-(2-oxoazetidin-1-yl)-[1,1′-biphenyl]-4-yl)methyl)-2,5-dimethylthiophene-3-carboxamido)spiro[3.3]heptane-2-carboxylic acid] |
| < 500 | < 500 | [H][C@]1(C(=O)O)C[C@]2(C[C@H](NC(=O)c3c(C)sc(C)c3Cc3ccc(-c4cc(OC)cc(N5CCC5=O)c4)cc3)C2)C1 (stereo partly drawn) [Example 63, (2R,4R,6R)-6-(4-((3′-methoxy-5′-(2-oxoazetidin-1-yl)-[1,1′-biphenyl]-4-yl)methyl)-2,5-dimethylthiophene-3-carboxamido)spiro[3.3]heptane-2-carboxylic acid] |
| 500 to 5000 | < 500 | Cc1sc(C)c(C(=O)NC2CC3(C2)CC(C(=O)O)C3)c1Cc1ccc(-c2ccc(F)cc2)cc1 (stereo not drawn) [Example 69, 6-(4-((4′-fluoro-[1,1′-biphenyl]-4-yl)methyl)-2,5-dimethylthiophene-3-carboxamido)spiro[3.3]heptane-2-carboxylic acid] |
| 500 to 5000 | < 500 | Cc1sc(C)c(C(=O)NC2CC3(C2)CC(C(=O)O)C3)c1Cc1ccc(-c2cc(O)cc(F)c2)cc1 (stereo not drawn) [Example 71, 6-(4-((3′-fluoro-5′-hydroxy-[1,1′-biphenyl]-4-yl)methyl)-2,5-dimethylthiophene-3-carboxamido)spiro[3.3]heptane-2-carboxylic acid] |
| < 500 | < 500 | O=C(NC1CC2(C1)CC(C(=O)O)C2)c1csc2ccn(Cc3ccc(-c4ccccc4)cc3)c12 (stereo not drawn) [Example 79, 6-(4-([1,1′-biphenyl]-4-ylmethyl)-4H-thieno[3,2-b]pyrrole-3-carboxamido)spiro[3.3]heptane-2-carboxylic acid] |
| 500 to 5000 | < 500 | Cc1sc2ccn(Cc3ccc(-c4ccccc4)cc3)c2c1C(=O)NC1CC2(C1)CC(C(=O)O)C2 (stereo not drawn) [Example 80, 6-(4-([1,1′-biphenyl]-4-ylmethyl)-2-methyl-4H-thieno[3,2-b]pyrrole-3-carboxamido)spiro[3.3]heptane-2-carboxylic acid] |
| 500 to 5000 | > 10000 | Cc1cn(Cc2ccc(-c3ccccc3)cc2)c2c(C(=O)NC3CC4(C3)CC(C(=O)O)C4)csc12 (stereo not drawn) [Example 81, 6-(4-([1,1′-biphenyl]-4-ylmethyl)-6-methyl-4H-thieno[3,2-b]pyrrole-3-carboxamido)spiro[3.3]heptane-2-carboxylic acid] |
| 500 to 5000 | < 500 | O=C(NC1CC2(C1)CC(C(=O)O)C2)c1c(Cl)sc2ccn(Cc3ccc(-c4ccccc4)cc3)c12 (stereo not drawn) [Example 82, 6-(4-([1,1′-biphenyl]-4-ylmethyl)-2-chloro-4H-thieno[3,2-b]pyrrole-3-carboxamido)spiro[3.3]heptane-2-carboxylic acid] |
| 500 to 5000 | > 10000 | O=C(N[C@H]1C[C@H](C(=O)O)C1)c1csc2ccn(Cc3ccc(-c4ccccc4)cc3)c12 [Example 83, (1R,3R)-3-(4-([1,1′-biphenyl]-4-ylmethyl)-4H-thieno[3,2-b]pyrrole-3-carboxamido)cyclobutane-1-carboxylic acid] |
| < 500 | < 500 | COc1cccc(-c2ccc(Cn3ccc4scc(C(=O)NC5CC6(C5)CC(C(=O)O)C6)c43)cc2)c1 (stereo not drawn) [Example 85, 6-(4-((3′-methoxy-[1,1′-biphenyl]-4-yl)methyl)-4H-thieno[3,2-b]pyrrole-3-carboxamido)spiro[3.3]heptane-2-carboxylic acid] |
| 500 to 5000 | 5000 to 10000 | O=C(NC12CCC(C(=O)O)(CC1)CC2)c1csc2ccn(Cc3ccc(-c4ccccc4)cc3)c12 [Example 88, 4-(4-([1,1′-biphenyl]-4-ylmethyl)-4H-thieno[3,2-b]pyrrole-3-carboxamido)bicyclo[2.2.2]octane-1-carboxylic acid] |
